Read-outs that look alike come from different tables or passages of the source.
Assays:
[1] = test system: LNCaP tumors; test: Micro-PET/CT blocking experiment with 2-PMPA, LNCaP tumor model; type: in vivo, mice; details: 40 nmol 2-PMPA 30 min before radioligand, static scan 60 min later
Protocol: (§1) To perform imaging studies, the male mice bearing LNCaP tumors were injected with the corresponding radioligand (~ 2.5 MBq; 100 μL) via their tail veins. The micro-PET/CT scans (Inveon PET, Siemens) were conducted at 10, 30, 60, and 120 min after injection. The mice were anesthetized and maintained under 2% isoflurane in oxygen at a flow rate of 2 L/min during the 2-h imaging study. First, a 10 min static PET imaging acquisition was carried out, followed by a 10 min CT scan for localization and attenuation correction. Data analysis was performed using Inveon Research Workplace software. For PC3-PIP tumor model, the imaging studies were performed with micro-PET/SPECT/CT (Inliview-3000B, Novel Medical). Data analysis was performed using Nmsoft-Al ws v1.7–1 software.
(§2) To evaluate the specificity of radioligands, blocking experiments were performed. In brief, 40 nmol of the PSMA inhibitor 2-PMPA was administered, followed by the injection of approximately 2.6 MBq of radioligands after 30 min. Then a static scan of micro-PET/CT was performed 60 min later.

[2] = test system: PC3-PIP tumors; test: Micro-PET/CT blocking experiment with 2-PMPA, PC3-PIP tumor model; type: in vivo, mice; details: identical methodology
Protocol: as §1, §2

[3] = test system: LNCaP tumor-bearing NOD/SCID mice; details: mouse, in vivo
[4] = test system: LNCaP tumor-bearing NOD/SCID mice; test: Biodistribution in LNCaP tumor model
[5] = test system: PC3-PIP tumor-bearing balb/c-nu mice; test: Biodistribution in PC3-PIP tumor model; type: in vivo; details: mean ± SD (n=5)
Protocol: All animal experiments were performed with the approval of the institutional animal ethics committee. Male NOD/SCID mice (5 − 6 weeks old) implanted with LNCaP cells were used for imaging and biodistribution experiments as previously described. The mice were imaged or used in biodistribution studies once the tumor grew to 8 − 10 mm in diameter over a period of 4 − 5 weeks. At the same time, male balb/c-nu mice (5 − 6 weeks old) implanted with PC3-PIP cells were used as an alternative tumor model for imaging and biodistribution experiments.
To conduct biodistribution studies, male mice bearing LNCaP or PC3-PIP tumors with an average body weight of approximately 20 ± 5 g and a tumor diameter of 8 − 10 mm were administered a bolus injection of 2.5 MBq of the corresponding radioligand via the tail vein. After 30, 60, and 120 min, the mice were anesthetized with isoflurane and subsequently euthanized by CO2 asphyxiation. Blood was drawn, and the organs of interest were promptly harvested, blotted dry, and weighed. The radioactivity of the collected mouse organs was measured and expressed as the percentage of the injected dose per gram of tissue (%ID/g). Each group consisted of at least five mice.

[6] = biological target: T1, PSMA (Homo sapiens, UniProt Q04609); test: Competitive cell binding assay against [68Ga]Ga-PSMA-11 on LNCaP cells; details: competition with [68Ga]Ga-PSMA-11, natGa-labeled standards, 1 h 37 °C
T1 construct: host or cells: LNCaP
T1 sequence (Q04609 whole entry): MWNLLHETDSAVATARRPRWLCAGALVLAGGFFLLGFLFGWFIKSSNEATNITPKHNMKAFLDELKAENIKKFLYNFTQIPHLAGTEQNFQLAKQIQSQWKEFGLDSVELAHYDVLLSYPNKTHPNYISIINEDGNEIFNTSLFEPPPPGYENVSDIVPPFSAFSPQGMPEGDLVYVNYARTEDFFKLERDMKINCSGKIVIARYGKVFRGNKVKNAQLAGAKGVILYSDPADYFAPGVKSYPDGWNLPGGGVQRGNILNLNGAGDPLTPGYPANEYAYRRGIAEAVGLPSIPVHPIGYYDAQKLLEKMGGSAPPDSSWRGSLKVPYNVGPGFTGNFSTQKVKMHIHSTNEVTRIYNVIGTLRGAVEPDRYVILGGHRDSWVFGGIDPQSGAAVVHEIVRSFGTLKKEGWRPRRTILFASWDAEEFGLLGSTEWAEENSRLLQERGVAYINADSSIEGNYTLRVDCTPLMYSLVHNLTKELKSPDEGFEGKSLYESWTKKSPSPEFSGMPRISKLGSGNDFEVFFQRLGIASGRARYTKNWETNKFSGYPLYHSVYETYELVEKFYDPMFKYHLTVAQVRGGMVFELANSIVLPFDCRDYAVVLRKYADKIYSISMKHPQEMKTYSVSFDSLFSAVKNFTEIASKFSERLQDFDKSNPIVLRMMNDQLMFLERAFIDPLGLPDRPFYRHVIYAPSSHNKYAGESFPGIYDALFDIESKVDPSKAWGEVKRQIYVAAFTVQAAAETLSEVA
Protocol: LNCaP prostate cancer cell line obtained from the American Type Culture Collection (ATCC, Manassas, VA) was used for cell affinity studies. The cells were grown in a meilunbio RPMI 1640 medium (ATCC modified) supplemented with 10% fetal bovine serum and 1% streptomycin/penicillin (Thermo Fisher Scientific, USA) at 37 °C in a humidified 5% CO2 atmosphere. Two days (48 ± 2 h) prior to in vitro experiments, the cells were harvested using trypsin-ethylenediaminetetraacetic acid (EDTA; 0.25% trypsin, 0.02% EDTA) in PBS and centrifuged. The supernatant was disposed, and the cell pellet was resuspended in a culture medium, and LNCaP cells (150,000 cells/well) were counted with a hemocytometer and seeded in poly-L-lysine-coated 24-well plates used in cell binding studies. The cells were then allowed to grow at 37 °C for 48 h. PC3-PIP cells provided by Professor Xiaoyuan Chen (Singapore) require additional Puromycin (2 µg/ml) in addition to the appealed culture conditions. Detailed information regarding uptake and internalization experiments can be found in the previous report.
In order to determine the binding affinity, a competitive cell binding assay was performed. […] The total radioactivity in each well was measured with a gamma counter. […]

[7] = Radiochemical stability in PBS at 37 °C; type: physicochemical; details: 2 h
Protocol: (§3) The radiochemical purity of samples incubated in PBS at each time point was determined using RP-HPLC. For the samples in human serum, a pretreatment step was applied. Briefly, the human serum samples underwent precipitation with acetonitrile, and the radiochemical purity of each supernatant aliquot was determined using RP-HPLC after centrifugation for 5 min at 10,000 rpm. The experiments were performed in triplicate.

[8] = Radiochemical stability in human serum at 37 °C; type: in vitro ADME; details: 2 h
Protocol: as §3

[9] = test system: LNCaP cells; test: Uptake and internalization in LNCaP cells; type: cell-based, human; details: 120 min incubation, normalized to 10^6 cells
Protocol: LNCaP prostate cancer cell line obtained from the American Type Culture Collection (ATCC, Manassas, VA) was used for cell affinity studies. […] The supernatant was disposed, and the cell pellet was resuspended in a culture medium, and LNCaP cells (150,000 cells/well) were counted with a hemocytometer and seeded in poly-L-lysine-coated 24-well plates used in cell binding studies. The cells were then allowed to grow at 37 °C for 48 h. PC3-PIP cells provided by Professor Xiaoyuan Chen (Singapore) require additional Puromycin (2 µg/ml) in addition to the appealed culture conditions.

O=C([O-])CN1CCN(CC(=O)[O-])CCN(CC(=O)NCCOCCOCCOCCOCCOCCOCCOCCOCCNC(=O)CN(CCCC[C@H](NC(=O)N[C@@H](CCC(=O)O)C(=O)O)C(=O)O)C(=O)C2c3ccccc3-c3ccccc32)CCN(CC(=O)[O-])CC1.[68Ga+3] [[^68Ga]Ga-PP8-WD]
Radioactivity upon blocking with 2-PMPA [1]: substantially reduced radioactivity | Outcome of blocking imaging with 2-PMPA [2]: in concordance with those observed in the LNCaP tumor model | Renal uptake reduced by a factor compared to [68Ga]Ga-Flu-1 [3]: 20 | Renal uptake, fold less compared to [68Ga]Ga-Flu-1 [3]: fivefold | Tumor uptake ([3]; 0.5 h): 16.18 ± 2.53 %ID/g | Tumor uptake ([3]; 1 h): 18.64 ± 2.20 %ID/g | Tumor uptake ([3]; 2 h): 17.12 ± 2.57 %ID/g | Tumor/Blood ratio ([4]; 30 min): 4.67±0.32 | Tumor/Heart ratio ([4]; 30 min): 12.31±0.58 | Tumor/Kidney ratio ([4]; 30 min): 0.63±0.11 | Tumor/Liver ratio ([4]; 30 min): 10.58±0.32 | Tumor/Salivary ratio ([4]; 30 min): 5.23±0.24 | Tumor/Blood ratio ([4]; 60 min): 5.31±0.54 | Tumor/Heart ratio ([4]; 60 min): 31.66±2.2 | Tumor/Kidney ratio ([4]; 60 min): 1.22±0.35 | Tumor/Liver ratio ([4]; 60 min): 23.74±1.90 | Tumor/Salivary ratio ([4]; 60 min): 11.50±1.19 | Tumor/Blood ratio ([4]; 120 min): 30.88±1.36 | Tumor/Heart ratio ([4]; 120 min): 75.85±3.6 | Tumor/Kidney ratio ([4]; 120 min): 2.68±0.22 | Tumor/Liver ratio ([4]; 120 min): 41.69±2.9 | Tumor/Salivary ratio ([4]; 120 min): 45.05±2.56 | Blood uptake ([5]; 30 min p.i.): 5.2±0.77 %ID/g | Bone uptake ([5]; 30 min p.i.): 1.21±0.57 %ID/g | Brain uptake ([5]; 30 min p.i.): 0.13±0.05 %ID/g | Heart uptake ([5]; 30 min p.i.): 1.21±0.19 %ID/g | Kidney uptake ([5]; 30 min p.i.): 11.38±3.15 %ID/g | Liver uptake ([5]; 30 min p.i.): 1.11±0.10 %ID/g | Lung uptake ([5]; 30 min p.i.): 2.64±0.23 %ID/g | Muscle uptake ([5]; 30 min p.i.): 0.45±0.06 %ID/g | Salivary uptake ([5]; 30 min p.i.): 1.23±0.17 %ID/g | Small int (small intestine) uptake ([5]; 30 min p.i.): 0.87±0.18 %ID/g | Spleen uptake ([5]; 30 min p.i.): 1.39±0.26 %ID/g | Stomach uptake ([5]; 30 min p.i.): 0.83±0.17 %ID/g | Tumor uptake ([5]; 30 min p.i.): 12.81±4.48 %ID/g | Blood uptake ([5]; 60 min p.i.): 3.89±0.18 %ID/g | Bone uptake ([5]; 60 min p.i.): 1.26±0.07 %ID/g | Brain uptake ([5]; 60 min p.i.): 0.12±0.02 %ID/g | Heart uptake ([5]; 60 min p.i.): 1.09±0.12 %ID/g | Kidney uptake ([5]; 60 min p.i.): 4.52±1.51 %ID/g | Liver uptake ([5]; 60 min p.i.): 1.24±0.16 %ID/g | Lung uptake ([5]; 60 min p.i.): 2.25±0.13 %ID/g | Muscle uptake ([5]; 60 min p.i.): 0.52±0.07 %ID/g | Salivary uptake ([5]; 60 min p.i.): 1.49±0.37 %ID/g | Small int (small intestine) uptake ([5]; 60 min p.i.): 0.92±0.23 %ID/g | Spleen uptake ([5]; 60 min p.i.): 1.30±0.21 %ID/g | Stomach uptake ([5]; 60 min p.i.): 0.98±0.09 %ID/g | Tumor uptake ([5]; 60 min p.i.): 15.21 ± 3.33 %ID/g | Blood uptake ([5]; 120 min p.i.): 3.12±0.48 %ID/g | Bone uptake ([5]; 120 min p.i.): 1.62±0.13 %ID/g | Brain uptake ([5]; 120 min p.i.): 0.13±0.03 %ID/g | Heart uptake ([5]; 120 min p.i.): 0.94±0.16 %ID/g | Kidney uptake ([5]; 120 min p.i.): 2.74±0.38 %ID/g | Liver uptake ([5]; 120 min p.i.): 1.38±0.19 %ID/g | Lung uptake ([5]; 120 min p.i.): 2.16±0.14 %ID/g | Muscle uptake ([5]; 120 min p.i.): 0.43±0.11 %ID/g | Salivary uptake ([5]; 120 min p.i.): 1.26±0.27 %ID/g | Small int (small intestine) uptake ([5]; 120 min p.i.): 0.89±0.27 %ID/g | Spleen uptake ([5]; 120 min p.i.): 0.96±0.14 %ID/g | Stomach uptake ([5]; 120 min p.i.): 0.79±0.08. %ID/g | Tumor uptake ([5]; 120 min p.i.): 14.3±5.37 %ID/g | IC50 [6]: 6.13 ± 0.79 nM | Radiochemical purity after incubation in PBS [7]: 97% | Radiochemical purity after incubation in human serum [8]: 96.69 ± 0.21% | Internalization in LNCaP cells [9]: 5.72 ± 0.95% | Uptake in LNCaP cells [9]: 10.16 ± 1.87%

Reference: publication PMC10850047, “Exploring the impact of PEGylation on pharmacokinetics: a size-dependent effect of polyethylene glycol on prostate-specific membrane antigen inhibitors” (EJNMMI Research, 2024)
